Data on 14 compounds can be found in ChEMBL document CHEMBL1135081, “Insertion of 2-carboxysuccinate and tricarballylic acid fragments into cyclic-pseudopeptides: new antagonists for the human tachykinin NK-2 receptor” (Bioorg Med Chem Lett, 2002).

Assay [1] concerns the target T1, Substance-K receptor (Oryctolagus cuniculus, UniProt P79218).
T1 sequence (P79218 whole entry): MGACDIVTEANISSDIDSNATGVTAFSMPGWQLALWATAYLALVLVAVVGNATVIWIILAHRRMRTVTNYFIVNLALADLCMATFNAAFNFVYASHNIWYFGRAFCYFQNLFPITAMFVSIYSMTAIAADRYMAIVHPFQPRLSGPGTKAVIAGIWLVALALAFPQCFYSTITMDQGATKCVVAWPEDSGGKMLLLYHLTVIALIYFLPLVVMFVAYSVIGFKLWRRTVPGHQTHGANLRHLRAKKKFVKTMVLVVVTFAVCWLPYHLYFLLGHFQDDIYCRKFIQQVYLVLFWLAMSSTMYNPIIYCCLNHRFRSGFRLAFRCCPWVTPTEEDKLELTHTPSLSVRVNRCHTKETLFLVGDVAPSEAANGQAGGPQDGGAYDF
Put plainly: In vitro functional activity towards Neurokinin NK2 receptor on isolated rabbit urinary bladder (RUB). Particulars: for Kb: read-out: pA2 (converted).

The target in assay [2] is T2, Substance-K receptor (Homo sapiens, UniProt P21452).
T2 sequence (P21452 whole entry): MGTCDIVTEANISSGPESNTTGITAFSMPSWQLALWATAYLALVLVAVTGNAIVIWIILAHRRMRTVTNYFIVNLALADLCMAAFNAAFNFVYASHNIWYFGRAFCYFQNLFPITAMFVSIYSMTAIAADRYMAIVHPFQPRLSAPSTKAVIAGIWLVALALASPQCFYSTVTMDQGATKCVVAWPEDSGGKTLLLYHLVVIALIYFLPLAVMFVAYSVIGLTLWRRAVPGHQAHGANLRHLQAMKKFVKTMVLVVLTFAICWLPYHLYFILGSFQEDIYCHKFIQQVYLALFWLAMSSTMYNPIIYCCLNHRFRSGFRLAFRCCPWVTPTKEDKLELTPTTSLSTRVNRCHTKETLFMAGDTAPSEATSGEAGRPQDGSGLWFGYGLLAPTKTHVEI
The assay can be described thus: Displacement of [125I]NKA from human Tachykinin receptor 2 expressed in CHO cells. The assay is classed as cell-based. (In general: Loss of bound radioactivity is the signal in a displacement assay; it reports binding, not function.)

By Ki is commonly meant the equilibrium dissociation constant of an inhibitor or competing ligand from its target. For `O=C1C[C@@H](CC(=O)N2CCC(N3CCCCC3)CC2)C(=O)NC[C@@H](Cc2ccccc2)NC(=O)[C@@H](Cc2ccccc2)NC(=O)[C@H](Cc2c[nH]c3ccccc23)N1`, the Kb on Substance-K receptor [1] was 2.51 nM. For the same compound, the Ki on Substance-K receptor [2] was 1.58 nM.
`O=C1C[C@H](CC(=O)N2CCC(N3CCCCC3)CC2)C(=O)NC[C@@H](Cc2ccccc2)NC(=O)[C@@H](Cc2ccccc2)NC(=O)[C@H](Cc2c[nH]c3ccccc23)N1`: the Kb on Substance-K receptor [1] was 3.98 nM. The inhibition constant (Ki) on Substance-K receptor [2] is 5.01 nM.
Regarding `O=C1CC(C(=O)N2CCN(CCOCCO)CC2)C(=O)NC[C@@H](Cc2ccccc2)NC(=O)[C@@H](Cc2ccccc2)NC(=O)[C@H](Cc2c[nH]c3ccccc23)N1` (some centres not stated), the Kb on Substance-K receptor [1] is 1 nM. For the same compound, the Ki on Substance-K receptor [2] was 1.58 nM.
Consider `CC(=O)NC1C(NC(=O)C[C@@H]2CC(=O)N[C@@H](Cc3c[nH]c4ccccc34)C(=O)N[C@H](Cc3ccccc3)C(=O)N[C@H](Cc3ccccc3)CNC2=O)OC(CO)C(O)C1O` (some centres not stated), for which, at Substance-K receptor [1], the Kb is 6.31 nM. Also, affinity at Substance-K receptor [2] was put at a Ki of 7.94 nM.
As to `CC(=O)NC1C(NC(=O)C2CC(=O)N[C@@H](Cc3c[nH]c4ccccc34)C(=O)N[C@H](Cc3ccccc3)C(=O)N[C@H](Cc3ccccc3)CNC2=O)OC(CO)C(O)C1O` (some centres not stated), the Kb on Substance-K receptor [1] was 3.98 nM. The inhibition constant (Ki) on Substance-K receptor [2] is 2.51 nM.
`CN(C)CCNC(=O)C[C@@H]1CC(=O)N[C@@H](Cc2c[nH]c3ccccc23)C(=O)N[C@H](Cc2ccccc2)C(=O)N[C@H](Cc2ccccc2)CNC1=O`: the Kb at Substance-K receptor [1] was 3.16 nM. At Substance-K receptor [2], this compound gave a Ki of 6.31 nM.
`CC(=O)NC1C(NC(=O)C[C@H]2CC(=O)N[C@@H](Cc3c[nH]c4ccccc34)C(=O)N[C@H](Cc3ccccc3)C(=O)N[C@H](Cc3ccccc3)CNC2=O)OC(CO)C(O)C1O` (some centres not stated): the Kb on Substance-K receptor [1] was 7.94 nM. Besides, the Ki at Substance-K receptor [2] was 6.31 nM.
On to `O=C1C[C@@H](CC(=O)N2CCOCC2)C(=O)NCC(Cc2ccccc2)NC(=O)C(Cc2ccccc2)NC(=O)[C@H](Cc2c[nH]c3ccccc23)N1` (single isomer, unassigned), for which the Kb on Substance-K receptor [1] is 1 nM. At Substance-K receptor [2], this compound showed a Ki of 0.631 nM.
As for `O=C(C[C@@H]1CC(=O)N[C@@H](Cc2c[nH]c3ccccc23)C(=O)NC(Cc2ccccc2)C(=O)NC(Cc2ccccc2)CNC1=O)NC1OC(CO)C(O)C(O)C1O` (single isomer, unassigned), on Substance-K receptor [1], the Kb was 6.31 nM. At Substance-K receptor [2], this compound gave a Ki of 10 nM.
For `O=C1CC(C(=O)N2CCOCC2)C(=O)NCC(Cc2ccccc2)NC(=O)C(Cc2ccccc2)NC(=O)[C@H](Cc2c[nH]c3ccccc23)N1` (single isomer, unassigned), the Kb at Substance-K receptor [1] was 0.631 nM. Also, the inhibition constant (Ki) on Substance-K receptor [2] is 0.126 nM.
In the case of `O=C1CC(C(=O)NC(CO)CO)C(=O)NCC(Cc2ccccc2)NC(=O)C(Cc2ccccc2)NC(=O)[C@H](Cc2c[nH]c3ccccc23)N1` (single isomer, unassigned), the Kb at Substance-K receptor [1] is 3.16 nM. This compound had an inhibition constant (Ki) at Substance-K receptor [2] of 3.98 nM.
Take `O=C1CCC(=O)N[C@@H](Cc2c[nH]c3ccccc23)C(=O)NC(Cc2ccccc2)C(=O)N[C@H](Cc2ccccc2)CN1` (single isomer, unassigned): on Substance-K receptor [1], the Kb was 5.01 nM.
Turning to `O=C1CC(C(=O)N2CCC(N3CCCCC3)CC2)C(=O)NCC(Cc2ccccc2)NC(=O)C(Cc2ccccc2)NC(=O)[C@H](Cc2c[nH]c3ccccc23)N1` (single isomer, unassigned; 8e), the Kb at Substance-K receptor [1] is 0.794 nM. The compound also gave a Ki at Substance-K receptor [2] of 0.0501 nM.
By pA2 is commonly meant the negative logarithm of the molar antagonist concentration that doubles the agonist concentration needed for the same response. Compound `O=C1CC(C(=O)N2CCC(N3CCCCC3)CC2)C(=O)NCC(Cc2ccccc2)NC(=O)C(Cc2ccccc2)NC(=O)[C@H](Cc2c[nH]c3ccccc23)N1` (single isomer, unassigned; 8f) displayed a pA2 at Substance-K receptor [1] of 9.1. The compound further showed a Ki on Substance-K receptor [2] of 0.316 nM.
